Our source for the EC50 and Emax values is patent US7713937B2, “Synthetic peptide amides and dimeric forms thereof” (Cara Therapeutics, Inc., priority 2006, dated 2010).

For orientation: EC50 means the concentration giving half of the maximal effect. A lower EC50 goes with an effect from little substance.

Assay [1] has as its target T1, mouse kappa opioid receptor (mKOR) (Mus musculus, UniProt P33534).
T1 construct: Stimulation of Endogenous Mouse Kappa-Opioid Receptor in R1.G1 Cells; host or cells: R1.G1 mouse thymoma cells
Briefly: cell-based. The settings on record: for Emax: read-out: mKOR Efficacy(%).

Assay [2] deals with T2, human kappa opioid receptor (hKOR) (Homo sapiens, UniProt P41145).
T2 construct: expressed in transfected cells; host or cells: HEK-293 cells, transient transfection with Fugene6
Put plainly: cell-based. The note with it: for Emax: HEK293, read-out: hKOR Efficacy(%).

Square brackets hold non-standard residues; d marks the D form. Side chains are listed from the residue outwards. Peptide text beside a SMILES is read from it. * marks the point of attachment. Piperidinyl(4-(1-Pro-OH)) = O=C(O)[C@@H]1CCCN1C1CCN(*)CC1; Homopiperazine(4-amidino) = N=C(N)N1CCCN(*)CC1; dAgb = N=C(N)NCC[C@@H](N)C(=O)O; dAgp = N=C(N)NC[C@@H](N)C(=O)O; dNle = CCCC[C@@H](N)C(=O)O; dDab = NCC[C@@H](N)C(=O)O; Morpholide = C1CN(*)CCO1; Api = NC1(C(=O)O)CCNCC1; Inp = O=C(O)C1CCNCC1 A value given as a limit tells only on which side of the number the result lay.

T2 sequence (P41145 whole entry): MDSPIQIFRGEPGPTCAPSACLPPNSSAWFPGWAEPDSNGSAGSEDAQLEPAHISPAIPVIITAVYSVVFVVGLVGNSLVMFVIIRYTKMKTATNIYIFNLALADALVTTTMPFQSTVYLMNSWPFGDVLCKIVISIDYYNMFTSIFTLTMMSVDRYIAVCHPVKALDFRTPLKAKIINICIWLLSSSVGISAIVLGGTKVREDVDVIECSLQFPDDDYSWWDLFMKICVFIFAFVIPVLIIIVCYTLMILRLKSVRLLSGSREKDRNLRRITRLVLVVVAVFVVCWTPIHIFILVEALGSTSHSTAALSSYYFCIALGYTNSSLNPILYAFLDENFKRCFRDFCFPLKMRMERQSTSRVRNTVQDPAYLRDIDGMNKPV
T1 sequence (P33534 whole entry): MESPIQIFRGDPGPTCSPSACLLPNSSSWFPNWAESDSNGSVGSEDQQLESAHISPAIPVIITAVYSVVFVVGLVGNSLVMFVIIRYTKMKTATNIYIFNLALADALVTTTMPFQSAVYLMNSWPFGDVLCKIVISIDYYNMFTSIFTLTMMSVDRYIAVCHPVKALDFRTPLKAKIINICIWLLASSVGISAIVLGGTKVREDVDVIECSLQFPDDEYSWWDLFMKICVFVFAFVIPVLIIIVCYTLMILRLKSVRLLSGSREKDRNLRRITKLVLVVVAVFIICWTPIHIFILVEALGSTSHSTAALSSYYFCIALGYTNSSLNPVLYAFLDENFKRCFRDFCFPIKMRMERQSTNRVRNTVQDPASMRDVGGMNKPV

As to `CC(C)C[C@@H](NC(=O)[C@@H](Cc1ccccc1)NC(=O)[C@H](N)Cc1ccccc1)C(=O)N[C@H](CCCNC(C)C)C(=O)NC1(C(=O)O)CCN(C(=O)[C@@H](CCCNC(C)C)NC(=O)[C@@H](CC(C)C)NC(=O)[C@@H](Cc2ccccc2)NC(=O)[C@H](N)Cc2ccccc2)CC1` [Compound (86), 1N,4N-bis-[D-Phe-D-Phe-D-Leu-(iPr)D-Orn]-4-amino-4-carboxylic-piperidine], in assay [1], the EC50 is 56.7 nM and the Emax was found to be 77%.

For `CC(C)C[C@@H](NC(=O)[C@@H](Cc1ccccc1)NC(=O)[C@H](N)Cc1ccccc1)C(=O)N[C@H](CCCCN)C(=O)N1CCC2(CC1)NC(=O)NC2=O` [Compound (27), D-Phe-D-Phe-D-Leu-D-Lys-[1,3,8-triazaspiro[4,5]decane-2,4-dione amide]], in assay [2], the EC50 is below 0.001 nM and the Emax was determined as 88%. Besides, in assay [1], the EC50 came out at 0.0056 nM and the Emax was determined as 87%.

In assay [2], `CC(C)C[C@@H](NC(=O)[C@@H](Cc1ccccc1)NC(=O)[C@H](N)Cc1ccccc1)C(=O)N[C@H](CCCNC(C)C)C(=O)N1CCC(N)(C(=O)O)CC1` [Compound (58), D-Phe-D-Phe-D-Leu-(δ-iPr)D-Orn-[ω(4-aminopiperidine-4-carboxylic acid)]-OH] displayed an EC50 of 0.12 nM. In assay [1], the 50% effective concentration (EC50) was found to be 0.193 nM and the Emax is 92%.

`CCCC[C@@H](NC(=O)[C@@H](Cc1ccccc1)NC(=O)[C@H](N)Cc1ccccc1)C(=O)N[C@H](CCCNC(=N)N)C(=O)N1CCC[C@@H]1C(=O)O` [Compound (40), D-Phe-D-Phe-D-Nle-D-Arg-D-Pro-OH] (H-[dF][dF][dNle][dR][dP]-OH): in assay [1], the concentration for a half-maximal effect (EC50) turned out to be 9.05 nM and the Emax came to 88%.

Take `CC(C)C[C@@H](NC(=O)[C@@H](Cc1ccccc1)NC(=O)[C@H](N)Cc1ccccc1)C(=O)N[C@H](CCCCN)C(=O)N1CCCN(C(=N)N)CC1` [Compound (15), D-Phe-D-Phe-D-Leu-D-Lys-[4-amidinohomopiperazine amide]]: in assay [2], the EC50 stood at 0.11 nM and the Emax was found to be 92%. Further, in assay [1], the concentration giving a half-maximal response (EC50) was 0.028 nM and the Emax was found to be 92%.

As to `CC(C)C[C@@H](NC(=O)[C@@H](Cc1ccccc1)NC(=O)[C@H](N)Cc1ccccc1)C(=O)N[C@H](CCCCN)C(=O)N1CCN(c2ncccn2)CC1` [Compound (63), D-Phe-D-Phe-D-Leu-D-Lys-[2-(piperazin-1-yl)pyrimidine amide]], in assay [2], the EC50 is 0.0073 nM and the Emax is 98%. For the same compound, in assay [1], the EC50 was 0.12 nM and the Emax was 78%.

Regarding `Cc1cnc(CNC(=O)[C@@H](CCCCN)NC(=O)[C@@H](CC(C)C)NC(=O)[C@@H](Cc2ccccc2)NC(=O)[C@H](N)Cc2ccccc2)cn1` [Compound (35), D-Phe-D-Phe-D-Leu-D-Lys-[(5-methylpyrazin-2-yl)methyl amide]], the EC50 in assay [2] was 0.0064 nM; in assay [1] it was 0.0359 nM.

For the compound `CC(C)C[C@@H](NC(=O)[C@@H](Cc1ccccc1)NC(=O)[C@H](N)Cc1ccccc1)C(=O)N[C@H](CCCN)C(=O)NCCN1CCN(CC(=O)O)CC1` [Compound (38), D-Phe-D-Phe-D-Leu-D-Orn-[4-(2-aminoethyl)-1-carboxymethyl-piperazine]-OH], the Emax in assay [2] was 102%. Also, in assay [1], the EC50 was 0.403 nM and the Emax stood at 98%.

Turning to `CC(C)C[C@@H](NC(=O)[C@@H](Cc1ccccc1)NC(=O)[C@H](N)Cc1ccccc1)C(=O)N[C@H](CNC(=N)N)C(=O)N1CCC(N2CCC[C@H]2C(=O)O)CC1` [Compound (14), D-Phe-D-Phe-D-Leu-D-Dap(amidino)-[N-(4-piperidinyl)-L-proline]-OH] (H-[dF][dF][dL][dAgp]-{Piperidinyl(4-(1-Pro-OH))}), the 50% effective concentration (EC50) in assay [2] was 0.21 nM; in assay [1], 0.349 nM. Also, the values for the Emax in assay [2] and in assay [1] were 81% and 86%, respectively.

Take `CC(C)C[C@@H](NC(=O)[C@@H](Cc1ccccc1)NC(=O)[C@H](N)Cc1ccccc1)C(=O)N[C@H](CCCNC(C)C)C(=O)N1CCCNCC1` [Compound (61), D-Phe-D-Phe-D-Leu-(δ-iPr)D-Orn-[homopiperazine amide]]: in assay [2], the concentration for a half-maximal effect (EC50) worked out at 0.07 nM and the Emax was 98%. For the same compound, in assay [1], the midpoint of the response, the EC50, lay at 0.033 nM and the Emax was determined as 96%.

For `CC(C)C[C@@H](NC(=O)[C@@H](Cc1ccccc1)NC(=O)[C@H](N)Cc1ccccc1)C(=O)N[C@H](CCCCN)C(=O)N1CCN(c2ccccn2)CC1` [Compound (65), D-Phe-D-Phe-D-Leu-D-Lys-[1-(pyridin-2-yl)piperazine amide]], in assay [2], the EC50 was determined as 0.0059 nM and the Emax is 100%. In addition, in assay [1], the EC50 came out at 0.0471 nM and the Emax was determined as 89%.

Consider `CNCCCC[C@@H](NC(=O)[C@@H](CC(C)C)NC(=O)[C@@H](Cc1ccccc1)NC(=O)[C@H](N)Cc1ccccc1)C(=O)N1CCC(N)(C(=O)O)CC1` [Compound (3), D-Phe-D-Phe-D-Leu-(ε-Me)D-Lys-[ω(4-aminopiperidine-4-carboxylic acid)]-OH], for which, in assay [2], the EC50 was determined as 0.16 nM and the Emax stood at 100%. For the same compound, in assay [1], the concentration for a half-maximal effect (EC50) is 0.052 nM and the Emax was found to be 96%.

In assay [2], `CC(C)C[C@@H](NC(=O)[C@@H](Cc1ccccc1)NC(=O)[C@H](N)Cc1ccccc1)C(=O)N[C@H](CCN)C(=O)N1CCC(N2CCC[C@H]2C(=O)O)CC1` [Compound (12), D-Phe-D-Phe-D-Leu-D-Dbu-[N-(4-piperidinyl)-L-proline]-OH] (H-[dF][dF][dL][dDab]-{Piperidinyl(4-(1-Pro-OH))}) displayed an EC50 of 0.17 nM. Moreover, in assay [1], the response was half-maximal at 0.055 nM (EC50) and the Emax is 89%.

On to `CC(C)C[C@@H](NC(=O)[C@@H](Cc1ccccc1)NC(=O)[C@H](N)Cc1ccccc1)C(=O)N[C@H](CCCCN)C(=O)N1CCN(S(C)(=O)=O)CC1` [Compound (68), D-Phe-D-Phe-D-Leu-D-Lys-[1-(methylsulfonyl)piperazine amide]], for which, in assay [2], the EC50 turned out to be 0.0073 nM and the Emax amounted to 100%. In assay [1], the midpoint of the response, the EC50, lay at 0.246 nM and the Emax was 82%.

For the compound `CC(C)C[C@@H](NC(=O)[C@@H](Cc1ccccc1)NC(=O)[C@H](N)Cc1ccccc1)C(=O)N[C@H](CCCCN)C(=O)N1CCC(C(=O)N2CCOCC2)CC1` [Compound (29), D-Phe-D-Phe-D-Leu-D-Lys-[morpholino(piperidin-4-yl)methanone amide]] (H-[dF][dF][dL][dK][Inp]-Morpholide), in assay [2], the EC50 was determined as 0.0145 nM and the Emax was determined as 100%. In addition, in assay [1], the midpoint of the response, the EC50, lay at 0.0464 nM and the Emax amounted to 86%.

For `CC(C)C[C@@H](N)C(=O)N[C@H](CCCN)C(=O)N[C@@H](CCCCNC(=O)[C@@H](CCCN)NC(=O)[C@@H](CC(C)C)NC(=O)[C@@H](Cc1ccccc1)NC(=O)[C@H](N)Cc1ccccc1)C(=O)O` [Compound (76), D-Phe-D-Phe-D-Leu-D-Orn-[eLys(D-Orn-D-Leu-H)]-OH], the half-maximal effective concentration (EC50) in assay [2] stood at 0.26 nM; in assay [1], 1.07 nM. In addition, the Emax in assay [2] was 83%; in assay [1], 96%.

On to `CC(C)C[C@@H](NC(=O)[C@H](N)Cc1ccccc1)C(=O)N[C@H](CCCN)C(=O)N[C@H](CCCCNC(=O)[C@@H](CCCN)NC(=O)[C@@H](CC(C)C)NC(=O)[C@@H](Cc1ccccc1)NC(=O)[C@H](N)Cc1ccccc1)C(=O)O` [Compound (84)], for which, in assay [1], the midpoint of the response, the EC50, lay at 0.34 nM and the Emax was 85%.

For the compound `CC(C)C[C@@H](N)C(=O)N[C@H](CCCN)C(=O)N[C@H](CCCCNC(=O)[C@@H](CCCN)NC(=O)[C@@H](CC(C)C)NC(=O)[C@@H](Cc1ccccc1)NC(=O)[C@H](N)Cc1ccccc1)C(=O)O` [Compound (83)], in assay [1], the concentration for a half-maximal effect (EC50) was determined as 0.05 nM and the Emax amounted to 91%.

Turning to `CC(C)C[C@@H](NC(=O)[C@@H](Cc1ccccc1)NC(=O)[C@H](N)Cc1ccccc1)C(=O)N[C@H](CCCN)C(=O)N[C@H]1CN[C@H](C(=O)O)C1` [Compound (41), D-Phe-D-Phe-D-Leu-D-Orn-[(2S,4R)-4-amino-pyrrolidine-2-carboxylic acid]-OH], in assay [1], the EC50 was 50.6 nM and the Emax came out at 87%.

`CC(C)C[C@@H](NC(=O)[C@@H](Cc1ccccc1)NC(=O)[C@H](N)Cc1ccccc1)C(=O)N[C@H](CCCN)C(=O)NC1CCN(CC(N)=O)CC1` [Compound (51), D-Phe-D-Phe-D-Leu-D-Orn-[4-amino-1-carboxymethyl-piperidine]-NH2]: in assay [1], a half-maximal response (EC50) required 1.97 nM and the Emax was 93%.

Take `CCCC[C@@H](NC(=O)[C@@H](Cc1ccccc1)NC(=O)[C@H](N)Cc1ccccc1)C(=O)N[C@H](CNC(=N)N)C(=O)N1CCCN(C(=N)N)CC1` [Compound (19), D-Phe-D-Phe-D-Nle-(β-amidino)D-Dap-[4-amidinohomopiperazine amide]] (H-[dF][dF][dNle][dAgp]-{Homopiperazine(4-amidino)}): in assay [1], the EC50 was found to be 2.15 nM and the Emax turned out to be 99%.

For the compound `CC(C)C[C@@H](NC(=O)[C@@H](Cc1ccccc1)NC(=O)[C@H](N)Cc1ccccc1)C(=O)N[C@H](CCCN)C(=O)N[C@@H]1CN[C@H](C(=O)O)C1` [Compound (42), D-Phe-D-Phe-D-Leu-D-Orn-[(2S,45)-4-amino-pyrrolidine-2-carboxylic acid]-OH], in assay [1], a half-maximal response (EC50) required 3 nM and the Emax was 96%.

In the case of `CC(C)C[C@@H](NC(=O)[C@@H](Cc1ccccc1)NC(=O)[C@H](N)Cc1ccccc1)C(=O)N[C@H](CCNC(=N)N)C(=O)NC1(C(=O)O)CCN(C(=O)[C@@H](CCNC(=N)N)NC(=O)[C@@H](CC(C)C)NC(=O)[C@@H](Cc2ccccc2)NC(=O)[C@H](N)Cc2ccccc2)CC1` [Compound (88), 1N,4N-bis-(D-Phe-D-Phe-D-Leu-D-Nar)-4-amino-4-carboxylic piperidine] (H-[dF][dF][dL][dAgb][Api]([dAgb-dL-dF-dF])-OH), in assay [1], the concentration giving a half-maximal response (EC50) was 13.8 nM and the Emax was found to be 76%.

`CC(C)C[C@@H](NC(=O)[C@@H](Cc1ccccc1)NC(=O)[C@H](N)Cc1ccccc1)C(=O)N[C@H](CCCN)C(=O)NCCCC[C@@H](NC(=O)[C@H](N)CCCN)C(=O)O` [Compound (82)] registered an EC50 in assay [1] of 0.12 nM.
